Assay results from paper PMC6300691, “Enhancement of Heat Stability and Kinetic Parameters of the Maize Endosperm ADP-Glucose Pyrophosphorylase by Mutagenesis of Amino Acids in the Small Subunit With High B Factors” (Frontiers in Plant Science, 2018).

What was measured:
Details in all cases: read-out: KM ATP
D242H = molecular target: T1, D242H (Zea mays, UniProt P55241+Q947C0, D242H); assay: Initial-rate assay (PPi formation coupled to NADH oxidation) with varied ATP (0.05-3.0 mM) at 2.0 mM G-1-P, 2.5 mM 3-PGA, 15 mM MgCl2, 50 mM HEPES pH 7.4, hyperbolic fit.; type: biochemical
T1 construct: BT2 variant with wild type SH2, E. coli, purified
T1 sequence (Q947C0 1-475 D242H, one chain of several): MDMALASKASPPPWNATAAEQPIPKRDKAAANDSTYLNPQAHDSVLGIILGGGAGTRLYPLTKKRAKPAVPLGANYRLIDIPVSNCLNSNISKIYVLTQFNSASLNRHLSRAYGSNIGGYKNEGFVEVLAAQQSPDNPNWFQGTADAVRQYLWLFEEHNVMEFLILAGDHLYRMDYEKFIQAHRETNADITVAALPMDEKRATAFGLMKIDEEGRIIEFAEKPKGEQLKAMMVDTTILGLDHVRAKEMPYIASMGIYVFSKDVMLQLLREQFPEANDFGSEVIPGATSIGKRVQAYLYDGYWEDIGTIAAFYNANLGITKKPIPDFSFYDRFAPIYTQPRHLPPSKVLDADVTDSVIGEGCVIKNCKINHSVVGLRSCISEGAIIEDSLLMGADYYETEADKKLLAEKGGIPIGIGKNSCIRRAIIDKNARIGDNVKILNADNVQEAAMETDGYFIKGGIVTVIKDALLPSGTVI
From the text: (§1) All saturation plots were hyperbolic. No cooperative effects were seen.

E123G, R331K = molecular target: T2, E123G, R331K (Zea mays, UniProt P55241+Q947C0, E123G/R331K); assay: as above; type: biochemical
T2 construct: BT2 variant with wild type SH2, E. coli, purified
T2 sequence (Q947C0 1-475 E123G/R331K, one chain of several): as the sequence (Q947C0 1-475 D242H, one chain of several) above, with E123G, H242D, R331K counted along it
From the text: as §1

[1] = molecular target: T3, E123G, R331K, K402R (BT2-BF) (Zea mays, UniProt P55241+Q947C0, E123G/R331K/K402R); assay: as above; type: biochemical
T3 construct: BT2-BF with wild type SH2 (SH2-WT/BT2-BF), E. coli, purified
T3 sequence (Q947C0 1-475 E123G/R331K/K402R): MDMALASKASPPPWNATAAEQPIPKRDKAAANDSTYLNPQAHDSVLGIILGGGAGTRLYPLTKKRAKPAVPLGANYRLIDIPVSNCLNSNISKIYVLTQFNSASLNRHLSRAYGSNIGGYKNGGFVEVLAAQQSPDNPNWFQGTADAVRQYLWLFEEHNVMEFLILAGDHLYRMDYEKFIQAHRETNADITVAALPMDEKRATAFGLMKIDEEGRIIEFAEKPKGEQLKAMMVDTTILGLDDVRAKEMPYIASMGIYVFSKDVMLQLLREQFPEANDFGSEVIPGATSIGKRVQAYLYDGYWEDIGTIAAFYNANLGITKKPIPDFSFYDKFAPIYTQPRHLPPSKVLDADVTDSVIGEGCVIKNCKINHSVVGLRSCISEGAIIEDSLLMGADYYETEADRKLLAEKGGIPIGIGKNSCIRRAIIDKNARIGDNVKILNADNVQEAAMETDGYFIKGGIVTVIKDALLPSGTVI
T3 sequence (P55241 46-516): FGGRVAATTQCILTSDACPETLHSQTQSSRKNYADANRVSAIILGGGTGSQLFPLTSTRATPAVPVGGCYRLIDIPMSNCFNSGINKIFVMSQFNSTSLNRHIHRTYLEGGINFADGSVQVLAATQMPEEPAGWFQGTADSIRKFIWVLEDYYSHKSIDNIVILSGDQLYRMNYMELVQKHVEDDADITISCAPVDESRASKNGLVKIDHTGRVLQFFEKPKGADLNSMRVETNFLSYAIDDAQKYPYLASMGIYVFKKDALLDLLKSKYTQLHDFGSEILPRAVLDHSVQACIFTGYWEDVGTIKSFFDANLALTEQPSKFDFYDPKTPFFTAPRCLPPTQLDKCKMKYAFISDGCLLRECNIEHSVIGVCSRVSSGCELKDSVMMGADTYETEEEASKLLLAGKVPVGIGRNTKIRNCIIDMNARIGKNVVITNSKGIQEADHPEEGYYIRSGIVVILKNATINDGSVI
From the text: as §1

[2] = molecular target: T4, E123G, R331K, K402R, L404H (Zea mays, UniProt P55241+Q947C0, E123G/R331K/K402R/L404H); assay: as above; type: biochemical
T4 construct: BT2 quadruple variant with wild type SH2, E. coli, purified
T4 sequence (Q947C0 1-475 E123G/R331K/K402R/L404H, one chain of several): as the sequence (Q947C0 1-475 D242H, one chain of several) above, with E123G, H242D, R331K, K402R, L404H counted along it
From the text: as §1

E123G, R331K, L404H = molecular target: T5, E123G, R331K, L404H (Zea mays, UniProt P55241+Q947C0, E123G/R331K/L404H); assay: as above; type: biochemical
T5 construct: BT2 variant with wild type SH2, E. coli, purified
T5 sequence (Q947C0 1-475 E123G/R331K/L404H, one chain of several): as the sequence (Q947C0 1-475 D242H, one chain of several) above, with E123G, H242D, R331K, L404H counted along it
From the text: as §1

E123Q = molecular target: T6, E123Q (Zea mays, UniProt P55241+Q947C0, E123Q); assay: as above; type: biochemical
T6 construct: BT2 variant with wild type SH2, E. coli, purified
T6 sequence (Q947C0 1-475 E123Q, one chain of several): as the sequence (Q947C0 1-475 D242H, one chain of several) above, with E123Q, H242D counted along it
From the text: as §1

K402R = molecular target: T7, K402R (Zea mays, UniProt P55241+Q947C0, K402R); assay: as above; type: biochemical
T7 construct: BT2 variant with wild type SH2, E. coli, purified
T7 sequence (Q947C0 1-475 K402R, one chain of several): as the sequence (Q947C0 1-475 D242H, one chain of several) above, with H242D, K402R counted along it
From the text: as §1

K403E = molecular target: T8, K403E (Zea mays, UniProt P55241+Q947C0, K403E); assay: as above; type: biochemical
T8 construct: BT2 variant with wild type SH2, E. coli, purified
T8 sequence (Q947C0 1-475 K403E, one chain of several): as the sequence (Q947C0 1-475 D242H, one chain of several) above, with H242D, K403E counted along it
From the text: as §1

K403L = molecular target: T9, K403L (Zea mays, UniProt P55241+Q947C0, K403L); assay: as above; type: biochemical
T9 construct: BT2 variant with wild type SH2, E. coli, purified
T9 sequence (Q947C0 1-475 K403L, one chain of several): as the sequence (Q947C0 1-475 D242H, one chain of several) above, with H242D, K403L counted along it
From the text: as §1

L404E = molecular target: T10, L404E (Zea mays, UniProt P55241+Q947C0, L404E); assay: as above; type: biochemical
T10 construct: BT2 variant with wild type SH2, E. coli, purified
T10 sequence (Q947C0 1-475 L404E, one chain of several): as the sequence (Q947C0 1-475 D242H, one chain of several) above, with H242D, L404E counted along it
From the text: as §1

L404H = molecular target: T11, L404H (Zea mays, UniProt P55241+Q947C0, L404H); assay: as above; type: biochemical
T11 construct: BT2 variant with wild type SH2, E. coli, purified
T11 sequence (Q947C0 1-475 L404H, one chain of several): as the sequence (Q947C0 1-475 D242H, one chain of several) above, with H242D, L404H counted along it
From the text: as §1

L404K = molecular target: T12, L404K (Zea mays, UniProt P55241+Q947C0, L404K); assay: as above; type: biochemical
T12 construct: BT2 variant with wild type SH2, E. coli, purified
T12 sequence (Q947C0 1-475 L404K, one chain of several): as the sequence (Q947C0 1-475 D242H, one chain of several) above, with H242D, L404K counted along it
From the text: as §1

R331K = molecular target: T13, R331K (Zea mays, UniProt P55241+Q947C0, R331K); assay: as above; type: biochemical
T13 construct: BT2 variant with wild type SH2, E. coli, purified
T13 sequence (Q947C0 1-475 R331K, one chain of several): as the sequence (Q947C0 1-475 D242H, one chain of several) above, with H242D, R331K counted along it
From the text: as §1

R331P = molecular target: T14, R331P (Zea mays, UniProt P55241+Q947C0, R331P); assay: as above; type: biochemical
T14 construct: BT2 variant with wild type SH2, E. coli, purified
T14 sequence (Q947C0 1-475 R331P, one chain of several): as the sequence (Q947C0 1-475 D242H, one chain of several) above, with H242D, R331P counted along it
From the text: as §1

K403R = K403R (Zea mays, UniProt P55241+Q947C0, K403R)
Sequence of K403R (Q947C0 1-475 K403R, one chain of several): as the sequence (Q947C0 1-475 D242H, one chain of several) above, with H242D, K403R counted along it
From the text: (§2) All V versus S plots were fitted using non-linear regression analysis and the following equation, v = VmaxS/(Km + S), where v is the measured velocity, Vmax is the maximum velocity, S is the substrate concentration.

wt (SH2-WT/BT2-WT) = wt (SH2-WT/BT2-WT) (Zea mays, UniProt P55241+Q947C0)
Sequence of wt (SH2-WT/BT2-WT) (Q947C0 1-475, one chain of several): as the sequence (Q947C0 1-475 D242H, one chain of several) above, with H242D counted along it
From the text: as §2

`Nc1ncnc2c1ncn2[C@@H]1O[C@H](COP(=O)(O)OP(=O)(O)OP(=O)(O)O)[C@@H](O)[C@H]1O` [ATP, adenosine 5'-triphosphate] gave a Km (D242H) of 110 ± 16 µM, a Km (E123G, R331K) of 80 ± 5 µM and a Km [1] of 60 ± 7 µM. The Km [2] was 91 ± 8 µM, the Km (E123G, R331K, L404H) was 67 ± 10 µM and the Km (E123Q) was 52 ± 6 µM. The Km (K402R) was 79 ± 15 µM, the Km (K403E) was 69 ± 12 µM and the Km (K403L) was 82 ± 17 µM. For the same molecule, the Km (L404E) was 135 ± 47 µM, the Km (L404H) was 132 ± 22 µM and the Km (L404K) was 43 ± 9 µM. For the same molecule, the Km (R331K) was 88 ± 13 µM, the Km (R331P) was 97 ± 15 µM and the Km (K403R) was 75 ± 13 µM. It also gave a Km (wt (SH2-WT/BT2-WT)) of 75 ± 18 µM.
